Measured values from publication PMC10689823, “Discovery of a Drug-like, Natural Product-Inspired DCAF11 Ligand Chemotype” (Nature Communications, 2023).
Where “and” joins values, the source holds several entries; their conditions need not be identical. Equal values may be shown once.

How the values were obtained:
Type in all cases: cell-based
[1] = system: BRD2; experiment: In-Cell Western for BRD2 levels in Hep G2 cells; conditions: Hep G2 cells; 4 h
Procedure: Hep G2 cells were seeded in 96-well plates and incubated for 24 h. Compounds were added for the indicated time at the indicated concentration. Cells were then washed once with PBS and fixed with 4% paraformaldehyde for 30 min at room temperature. The fixed cells were permeabilized with 0.5 % Triton-X100 for 15 min followed by block with Intercept® Blocking Buffer (LI-COR Biosciences, 927-70001) for 1 h at room temperature. Primary antibodies for BRD2 (1:800) and Vinculin (1:2000) were diluted with LI-COR buffer and incubated with the cells at 4 °C overnight. Cells were washed with PBS-T, and the secondary antibodies conjugated to IRDye (1:1000, LI-COR Biosciences) were added to the cells for 1 h at room temperature. After washing the cells, the signal was recorded with the Odyssey® CLx Infrared Imaging System (LI-COR Biosciences) and the protein levels were analyzed by Image Studio (LI-COR Biosciences). BRD2 protein levels were normalized to the levels of reference protein vinculin.

[2] = biological target: BRD2 (Homo sapiens, UniProt P25440); experiment: BRD2 levels by Western blot in KBM7 cells (WT, DCAF11 knockout, DDB1 knockout); set-up: endogenous in cells; host or cells: KBM7 (WT, DCAF11 KO, DDB1 KO); conditions: 4 h
Chain of BRD2 (Homo sapiens, UniProt P25440) (P25440 whole entry): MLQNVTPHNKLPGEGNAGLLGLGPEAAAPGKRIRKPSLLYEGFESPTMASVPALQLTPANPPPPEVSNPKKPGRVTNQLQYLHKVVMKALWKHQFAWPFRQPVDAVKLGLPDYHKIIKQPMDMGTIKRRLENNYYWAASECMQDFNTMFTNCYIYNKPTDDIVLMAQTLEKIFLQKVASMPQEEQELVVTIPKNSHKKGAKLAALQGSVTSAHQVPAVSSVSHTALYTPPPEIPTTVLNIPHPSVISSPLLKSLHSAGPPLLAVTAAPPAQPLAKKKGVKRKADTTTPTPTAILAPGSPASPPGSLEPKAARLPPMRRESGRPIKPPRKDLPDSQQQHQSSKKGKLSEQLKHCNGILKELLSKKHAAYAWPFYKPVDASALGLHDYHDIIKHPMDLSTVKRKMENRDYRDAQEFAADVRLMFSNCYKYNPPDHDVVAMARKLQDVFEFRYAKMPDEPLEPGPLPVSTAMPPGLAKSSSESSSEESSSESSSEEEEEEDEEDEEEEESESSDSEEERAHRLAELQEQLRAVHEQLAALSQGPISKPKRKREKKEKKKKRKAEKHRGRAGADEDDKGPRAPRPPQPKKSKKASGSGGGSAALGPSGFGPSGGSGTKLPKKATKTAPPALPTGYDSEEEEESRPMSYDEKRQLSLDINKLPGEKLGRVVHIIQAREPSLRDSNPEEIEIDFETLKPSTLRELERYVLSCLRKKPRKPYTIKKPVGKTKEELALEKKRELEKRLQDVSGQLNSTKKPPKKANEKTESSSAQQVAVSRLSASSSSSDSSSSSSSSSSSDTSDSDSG
Procedure: Cells were washed with PBS and lysed in lysis buffer (50 mM Tris-HCl, pH 7.4, 150 mM NaCl, 1% Triton X-100, 1% sodium deoxycholate, 0.1% SDS) with complete protease inhibitor cocktail (Roche, 11836170001) for 30 min on ice. For Ramos cells, cell pellets were lysed in lysis buffer (50 mM Tris-HCl, pH 8, 150 mM NaCl, 1% NP-40, 0.5% sodium deoxycholate) with complete protease inhibitor cocktail. After centrifugation at 16,000 x g, the supernatant was transferred into a new tube and the protein concentration was determined by DC protein assay (BIO-RAD, 5000116). Proteins were separated by SDS-PAGE and transferred to a PVDF membrane (Thermo scientific, 0.45 μm, 88518). For PDEδ, BRD2, GAPDH, BRD4, Vinculin and BTK, the membranes were blocked with Intercept® Blocking Buffer (LI-COR Biosciences, 927-70001) at room temperature for 1 h. The primary antibodies for these proteins were diluted with Intercept® Blocking Buffer (1:500 for PDEδ, 1:3000 for Vinculin, and 1:1000 for other proteins) and incubated with the membranes overnight at 4 °C. Membranes were washed with PBS + 0.1% Tween 20 (PBS-T) five times and incubated with secondary antibodies conjugated to IRDye® Infrared Fluorescent Dyes (1:5000, LI-COR Biosciences) at room temperature for 1 h with protection from light. After washing the membrane, signals were visualized using the ChemiDoc MP Imaging System (BIO-RAD Laboratories). For detection of LC3B, BRD3, BLK, DCAF11, DDB1 RBX1, FIP200, V5- and FLAG-Tag the membranes were blocked with 5% milk in PBS-T at room temperature for 1 h. The primary antibodies for these proteins were diluted in 5% milk in PBS-T buffer (1:200 for BRD3, 1:1000 for other proteins) and incubated with the membranes overnight at 4 °C. Membranes were washed with PBS-T five times and incubated with HRP secondary antibodies (1:1500) at room temperature for 1 h. After washing the membrane, protein detection was performed using Western blotting detection reagent (Thermo Scientific, 34095) and the ChemiDoc MP Imaging System (BIO-RAD). Relative band intensities were quantified using Image Lab (BIO-RAD).
DCAF11- or FIP200 (RB1CC1)-targeting sgRNAs were lentivirally packaged using PEI transfection of Lenti-X cells. The viral supernatant was harvested after 72 h, cleared of cellular debris by filtration through a 0.45-µm PES filter and stored in aliquots at −80 °C. The appropriate amount of viral supernatant was transduced into KBM7 cells (1 × 10^6 cells/mL) via spinfection (2000 rpm, 1 h, 37 °C) with polybrene (8 µg/mL). Two days post transduction, the cells were selected with puromycin (1 µg/mL) for a total of 5 days, after which the knockout pools were validated via western blotting.

[3] = Cell viability assay (CellTiter-Glo) in Jurkat cells; conditions: human, Jurkat cells; for viability at 72 h, 10 nmol/L: concentration 10 nmol/L; for viability at 72 h, 100 nmol/L: concentration 100 nmol/L; for viability at 72 h, 300 nmol/L: concentration 300 nmol/L; for viability at 72 h, 1000 nmol/L: concentration 1000 nmol/L; for viability at 72 h, 3000 nmol/L: concentration 3000 nmol/L; for viability at 72 h, 10000 nmol/L: concentration 10000 nmol/L; for viability at 72 h, 0.01 µM: 10 nM; for viability at 72 h, 0.1 µM: 100 nM; for viability at 72 h, 1 µM: 1000 nM; for viability at 72 h, 3 µM: 3000 nM
Procedure: (§1) Jurkat cells (3 × 10^3) and Hep G2 cells (3.5 × 10^3) were seeded in 96-well plates in 100 μL culture medium. Cells were treated with compounds dissolved in 50 μl medium at the indicated concentration for 72 h, at the same time, one plate of cells without compounds treatment was used for the cell count at time zero. After adding 40 μl of CellTiter-Glo® reagent (Promega, G7571) to each well for 10 min at room temperature, the luminescence was measured on a Spark® Multimode Microplate Reader (Tecan). The data was analyzed by the GraphPad Prism 9.0.

[4] = system: Jurkat cells; experiment: as above; conditions: for GI50: Homo sapiens; for GI50 / Relative cell viability (%): Jurkat cells, 72 h; for Relative cell viability (%): Fig. 4k; for Cell viability (%) relative to DMSO: individual replicates, Supplementary Fig. 7g
Procedure: as §1

[5] = system: caspase-3/7 activity; experiment: Caspase-3/7 Activity Assay in Jurkat cells; conditions: 18 h, Fig. 4l
Procedure: Jurkat cells (3 × 10^3) were seeded in 96-well plates in 25 μl culture medium. Cells were treated with compounds dissolved in 25 μl medium at the indicated concentration for 18 h. After adding 50 μl of Caspase-Glo® 3/7 Reagent (Promega, G8091) to each well for 30 min at room temperature, the luminescence was measured on a Spark® Multimode Microplate Reader (Tecan). The data was analyzed by the GraphPad Prism 9.0.

[6] = individual replicates, Supplementary Fig. 7g, read-out: Cell viability (%) relative to DMSO
[7] = 72 h, Fig. 4k, read-out: Relative cell viability (%)

Row | SMILES | BRD2 degradation in KBM7 cells [2] | viability at 72 h, 10 nmol/L [3, 6] [%] | viability at 72 h, 100 nmol/L [3, 6] [%] | viability at 72 h, 300 nmol/L [3, 6] [%] | viability at 72 h, 1000 nmol/L [3, 6] [%] | viability at 72 h, 3000 nmol/L [3, 6] [%] | viability at 72 h, 10000 nmol/L [3, 6] [%] | viability at 72 h, 0.01 µM [3, 7] [%] | viability at 72 h, 0.1 µM [3, 7] [%] | viability at 72 h, 1 µM [3, 7] [%] | viability at 72 h, 3 µM [3, 7] [%] | GI50 [4] [µM] | Relative cell viability (%) ([4]; 10 nM, 0.01 µM) | Relative cell viability (%) ([4]; 30 nM, 0.03 µM) | Relative cell viability (%) ([4]; 100 nM, 0.1 µM) | Relative cell viability (%) ([4]; 300 nM, 0.3 µM) | Relative cell viability (%) ([4]; 1000 nM, 1 µM) | Relative cell viability (%) ([4]; 3000 nM, 3 µM) | Relative cell viability (%) ([4]; 10000 nM, 10 µM) | Relative cell viability (%) ([4]; 30000 nM, 30 µM) | further results
1 | Cc1sc2c(c1C)C(c1ccc(Cl)cc1)=NC(CC(=O)NCCOCCOCCOCCOCCNC(=O)COc1c(Br)cc(CC3C(=O)Nc4ccc(Br)cc43)cc1Br)c1nnc(C)n1-2 (stereo not drawn) [Compound 16] | did not induce degradation of BRD2 | 95.2 | 99.6 | 96.7 | 82.7 | 60 | 8.63 | 97.2 | 92.6 | 49.7 | 16.6 | 1 to 1.2 | 112.636% and 96.9495% | 115.001% and 96.0444% | 99.9011% and 81.8303% | 80.1727% and 96.1576% and 71.4791% | 60.9647% and 43.3109% | 18.6473% and 16.4385% | -0.2254% and 0.02364% and 0.3624% | -0.3131% and -0.2888% and -0.253% | BRD2 depletion by In-Cell Western [1]: did not induce in cellulo degradation; viability at 72 h, 0.03 µM ([3]; 72 h, 30 nM, Fig. 4k, read-out: Relative cell viability (%)): 102%; Cell viability (%) relative to DMSO ([4]; concentration 10 nmol/L): 99.6715% and 109.515%; Cell viability (%) relative to DMSO ([4]; concentration 30 nmol/L): 97.9616% and 103.22% and 119.751%; Cell viability (%) relative to DMSO ([4]; concentration 100 nmol/L): 100.592% and 111.273%; Cell viability (%) relative to DMSO ([4]; concentration 300 nmol/L): 96.8221% and 108.638%; Cell viability (%) relative to DMSO ([4]; concentration 1000 nmol/L): 85.5266% and 95.8957%; Cell viability (%) relative to DMSO ([4]; concentration 3000 nmol/L): 59.9059% and 72.5452%; Cell viability (%) relative to DMSO ([4]; concentration 10000 nmol/L): 8.512% and 16.0463%; Cell viability (%) relative to DMSO ([4]; concentration 30000 nmol/L): -0.0717% and -0.2673% and -0.08298%; Caspase 3/7 activity (fold change) ([5]; 0.3 μM): 1.231 fold change and 1.654 fold change and 1.232 fold change; Caspase 3/7 activity (fold change) ([5]; 1 μM): 1.2 fold change and 1.194 fold change and 1.182 fold change
2 | Cc1sc2c(c1C)C(c1ccc(Cl)cc1)=NC(CC(=O)NCCOCCOCCOCCOc1c(Br)cc(CC3C(=O)Nc4ccc(Br)cc43)cc1Br)c1nnc(C)n1-2 (stereo not drawn) [Compound 17] | did not induce degradation of BRD2 | 104 | 100 | 92.8 | 80.1 | 58.9 | 38.2 | 120 | 104 | 54.7 | 23 | 1 to 1.2 | 113.554% and 104.708% | 107.162% and 119.822% and 97.6289% | 93.2408% and 94.967% | 80.2996% and 90.3554% and 69.1714% | 51.0815% and 43.0724% | 24.9133% and 20.9046% | -0.06982% and 0.1224% and 1.03% | -0.1785% and -0.1531% and -0.21% | viability at 72 h, 30 nmol/L ([3]; concentration 30 nmol/L, individual replicates, Supplementary Fig. 7g, read-out: Cell viability (%) relative to DMSO): 101%; Cell viability (%) relative to DMSO ([4]; concentration 10 nmol/L): 97.5079% and 115.29%; Cell viability (%) relative to DMSO ([4]; concentration 30 nmol/L): 100.694% and 103.862%; Cell viability (%) relative to DMSO ([4]; concentration 100 nmol/L): 98.8981% and 102.192%; Cell viability (%) relative to DMSO ([4]; concentration 300 nmol/L): 95.2575% and 90.332%; Cell viability (%) relative to DMSO ([4]; concentration 1000 nmol/L): 81.9098% and 92.9141%; Cell viability (%) relative to DMSO ([4]; concentration 3000 nmol/L): 61.001% and 70.9093%; Cell viability (%) relative to DMSO ([4]; concentration 10000 nmol/L): 25.3619% and 36.1626%; Cell viability (%) relative to DMSO ([4]; concentration 30000 nmol/L): 28.6334% and 13.2236% and 16.0233%; Caspase 3/7 activity (fold change) ([5]; 0.3 μM): 1.197 fold change and 0.791 fold change and 0.9918 fold change; Caspase 3/7 activity (fold change) ([5]; 1 μM): 1.23 fold change and 0.8887 fold change and 1.1561 fold change
